Measurements reported in publication PMC10970924 (Life, 2024).
Values joined by “and” are separate entries in the source; they are usually repeats but may differ in a detail not shown here. Equal entries are not always repeated.

Legend:
MTS cytotoxicity assay = conditions: human
Source text: The study utilized human cell lines including PC-3 (human prostate adenocarcinoma), HSF (primary human skin fibroblasts), MDA-MB-231 (estrogen-negative breast adenocarcinoma), MCF-7 (estrogen-positive breast adenocarcinoma), MSC (multipotent stem cells derived from adipose tissue), SF-539 (brain gliosarcoma), SNB-19 (glioblastoma), A-498 (kidney carcinoma), M-14 (human melanoma), NCI-H322-M (primary bronchioalveolar carcinoma), HCT-15 (colon adenocarcinoma), and HCT-116 (colorectal intestinal carcinoma). We also used immortalized C2C12 mouse myoblasts (ATCC—CRL-1772). Cancer cell lines were obtained from the ATCC collection and generously provided by the Fox Chase Cancer Center (Philadelphia, USA). Conditionally normal cells, including skin fibroblasts and multipotent stem cells, were isolated by our group from postoperative materials (skin and subcutaneous fat) obtained from a conditionally healthy donor. Reagents and consumables for cell culture work were purchased from PanEco (Russia).
The cytotoxicity of the compounds under study was assessed using MTS assay on cell cultures. Cells were seeded into 96-well plates at a concentration of 10,000–20,000 cells/mL. […] After 2 h of incubation, the resulting water-soluble formazan was measured using the TECAN Infinite M200 Pro microplate reader at wavelengths of 555/750 nm. […]

MCF-7 [1] = experiment: Proliferation by impedance biosensor (RTCA DP Analyzer); type: cell-based; conditions: Homo sapiens, MCF7, 72 h, incubation three days, read-out: IC50 inhibitory concentration, MCF-7
MCF-7 [2] = experiment: Mitochondrial membrane potential, rhodamine 123 flow cytometry; type: cell-based, human; conditions: MCF-7, 72 h, concentration corresponding to IC60
Method: Cells were seeded in a 12-well plate at a density of 1 × 10^5 cells/well and incubated for 24 h at 37 °C in a humid atmosphere with 5% CO2 prior to treatment. Cells were bathed in complete DMEM media containing the respective compounds, using a solvent (dH2O/DMSO) as a negative control. After 72 h, the nutrient medium over cells containing the floating cells was collected into tubes, and then the adherent cells were trypsinized and added to the fraction of floating cells. Cell suspensions were then centrifuged, and the pellet was suspended in phosphate-buffered saline (PBS) to a final density of 5 × 10^5 cells/mL. Cell suspension in a volume of 250 μL and 500 nM rhodamine 123 were added to a rounded-well plate, followed by incubation for 30 min at 25° C. Measurements were conducted using flow cytometry on the Millipore Guava EasyCyte HT Flow Cytometer System in a green fluorescent channel.

MCF-7 cells = experiment: Comet assay; type: cell-based, human; set-up: Tail Length: unit not given here; conditions: for Olive Moment / Tail Area / Tail DNA % / Tail Intensity / Tail Length / Tail Moment: 3 days
[3] = MTS cytotoxicity assay, statements over the cell panel; type: cell-based; conditions: human, tumor and conditionally normal cells; MTS dose–response curves, high concentrations; read-out: Viable cells remaining
Method: The cytotoxicity of the compounds under study was assessed using MTS assay on cell cultures. Cells were seeded into 96-well plates at a concentration of 10,000–20,000 cells/mL. After 24 h, gradient concentrations of the compounds were added to the culture medium and the plates were incubated for 72 h. Subsequently, the culture medium was replaced with MTS reagents (Sigma-Aldrich, Burlington, MA, USA) (MTS:PMS (0.18:0.0092 mg/mL)) and dissolved in phenol-free RPMI 1640 medium. After 2 h of incubation, the resulting water-soluble formazan was measured using the TECAN Infinite M200 Pro microplate reader at wavelengths of 555/750 nm. As a control, equivalent volumes of the solvents in which each compound was dissolved (dH2O/DMSO) were used. To calculate the percentage of viable cells relative to the control, which was considered 100%, dose-response curves were plotted against the logarithm of the compound concentration. The concentration of the compound at which cell growth is inhibited by 50% relative to the control was taken as the inhibitory concentration IC50 and calculated using Origin Pro software 8.0.1. The study was conducted in triplicates and in three independent repetitions.

MCF-7 [4] = experiment: Proliferation by impedance biosensor (RTCA DP Analyzer); type: cell-based, human; conditions: test concentration selected from biosensor data
Method: The effect of the test compounds on the proliferation of multiple cell lines was assessed in real time using the RTCA DP Analyzer (Roche, Basel, Switzerland). For this purpose, we used specialized E-plates containing wells similar in size to a standard 96-well plate, but their bottoms were covered with microelectrodes to assess impedance. When cells adhere to the microelectrodes, the impedance of the well changes, which allows us to calculate the cell index proportional to the cell number. In the experiment, cells were seeded in the E-plate at densities of 20,000 cells per milliliter (180 μL/well). At 24 h post-cell attachment, 20 μL of compounds at various test concentrations or solvent as a control were introduced, and cells were then cultured with real-time impedance registration for 5 days.

MDA-MB-231 = experiment: Colony formation assay; type: cell-based; conditions: Homo sapiens, MDA-MB-231, 72 h, incubation three days, read-out: Inhibitory concentration IC50, MDA-MB-231
Method: (§1) Cells were cultured in a 24-well plate with 1 mL of DMEM nutrient medium for 24 h. […] The experiment was conducted in triplicate and in two or three independent repetitions. Only solvent was added to the control wells instead of the test compounds. Incubation with the drugs continued for three days, after which the grown colonies were washed with cold PBS solution and fixed in a fixing buffer (10% acetic acid, 10% methanol in distilled water) for 15 min. The colonies were stained with a 0.4% solution of crystal violet in 20% ethanol for 30 min and then washed 3 times with dH2O and analyzed under a microscope. The colonies were then dissolved in 10% acetic acid for 40 min on a shaker, and the absorbance of the lysate was read at 590 nm. Results were expressed as a percentage relative to the control, and a dose–response curve was plotted to determine the IC50 value.

NCI-H322M = experiment: Colony formation assay; type: cell-based; conditions: Homo sapiens, 72 h, incubation three days, read-out: Inhibitory concentration IC50, NCI-H322M
Method: as §1

SNB-19 = experiment: Colony formation assay; type: cell-based; conditions: Homo sapiens, SNB-19, 72 h, incubation three days, read-out: Inhibitory concentration IC50, SNB-19
Method: as §1

HCT-15 = experiment: Colony formation assay; type: cell-based; conditions: Homo sapiens, HCT-15, 72 h, incubation three days, read-out: Inhibitory concentration IC50, HCT-15
Method: as §1

HSF = experiment: Colony formation assay; type: cell-based; conditions: Homo sapiens, 72 h, incubation three days, read-out: Inhibitory concentration IC50, HSF
Method: as §1

Q: Which IC50 at 72 h (MTS cytotoxicity assay; MSC multipotent stem cells derived from adipose tissue) does the source give for `COc1cccc2c1C(=O)c1c(O)c3c(c(O)c1C2=O)C[C@@](O)(C(=O)CO)C[C@@H]3O[C@H]1C[C@H](N)[C@H](O)[C@H](C)O1` [DOX, Doxorubicin, reference compound] here?
A: 1.1 ± 0.65 µM

Q: Which results are given for `COc1cccc2c1C(=O)c1c(O)c3c(c(O)c1C2=O)CC(O)(C(=O)CO)CC3OC1CC(NC(=O)/C=C/c2cnc(C)c3c2COC(C)(C)O3)C(O)C(C)O1` (centres unmarked) [DOX-2, (E)-N-(3-hydroxy-2-methyl-6-((3,5,12-trihydroxy-3-(2-hydroxyacetyl)-10-methoxy-6,11-dioxo-1,2,3,4,6,11-hexahydrotetracen-1-yl)oxy)tetrahydro-2H-pyran-4-yl)-3-(2,2,8-trimethyl-4H-[1,3]dioxino[4,5-c]pyridin-5-yl)acrylamide]?
A: IC50 (MCF-7 [1]): 8.21 ± 2.93 µM; Cells with reduced mitochondrial potential (MCF-7 [2]): up to 27%; Olive Moment (MCF-7 cells; MCF-7, 5 µM (IC30)): 0.73; Tail Area (MCF-7 cells; MCF-7, 5 µM (IC30)): 1254; Tail DNA % (MCF-7 cells; MCF-7, 5 µM (IC30)): 1.3%; Tail Intensity (MCF-7 cells; MCF-7, 5 µM (IC30)): 10; Tail Length (MCF-7 cells; MCF-7, 5 µM (IC30)): 4.9; Tail Moment (MCF-7 cells; MCF-7, 5 µM (IC30)): 0.14; Olive Moment (MCF-7 cells; MCF-7, 10 µM (IC60)): 1.42; Tail Area (MCF-7 cells; MCF-7, 10 µM (IC60)): 637; Tail DNA % (MCF-7 cells; MCF-7, 10 µM (IC60)): 5.1%; Tail Intensity (MCF-7 cells; MCF-7, 10 µM (IC60)): 21; Tail Length (MCF-7 cells; MCF-7, 10 µM (IC60)): 1.5; Tail Moment (MCF-7 cells; MCF-7, 10 µM (IC60)): 0.21; Olive Moment (MCF-7 cells; MCF-7, 20 µM (IC70)): 1.01; Tail Area (MCF-7 cells; MCF-7, 20 µM (IC70)): 876; Tail DNA % (MCF-7 cells; MCF-7, 20 µM (IC70)): 1.9%; Tail Intensity (MCF-7 cells; MCF-7, 20 µM (IC70)): 20; Tail Length (MCF-7 cells; MCF-7, 20 µM (IC70)): 5.8; Tail Moment (MCF-7 cells; MCF-7, 20 µM (IC70)): 0.25; DNA breaks in the Comet assay (in words) (MCF-7 cells; MCF-7, 72 h): do not cause DNA breaks; IC50 at 72 h (MTS cytotoxicity assay): > 200 µM; viability at 72 h [3]: 20 to 40%; IC20 (MCF-7 [4]; Homo sapiens, MCF7): 1.5 µM; IC0, MCF-7 (MCF-7 [4]): 0.4 µM; IC4, MCF-7 (MCF-7 [4]): 0.7 µM; IC30, MCF-7 (MCF-7 [4]): 5 μM and 5 µM (IC30) μM; IC60, MCF-7 (MCF-7 [4]): 10 μM and 10 µM (IC60) μM; IC70, MCF-7 (MCF-7 [4]): 20 μM and 20 µM (IC70) μM; IC50 (MDA-MB-231): 0.34 ± 0.06 µM; IC50 (NCI-H322M): > 100 µM; IC50 (SNB-19): 1.05 ± 0.34 µM; IC50 (HCT-15): 110 ± 21.9 µM; IC50 (HSF): > 100 µM
